Laboratory results as given in ChEMBL document CHEMBL1138883, “Synthesis and biological evaluation of new asymmetrical bisintercalators as potential antitumor drugs” (2006).
The source made the active and inactive calls. The calls are words filed in the database; no cut-off is given here.

How the values were obtained:
[1] = Ratio of K(app) for [A-T] to [G-C]
PC-3 [2] = experiment: Cytotoxicity against PC3 cells by SRB assay after 48 hrs; type: functional; conditions: Homo sapiens, PC-3, 48 h
PC-3 [3] = experiment: Induction of apoptosis in PC3 measured as percentage of early apoptotic cells by biparametric PI/Annexin V assay at 2.6 uM after 24 hrs; type: functional, Homo sapiens
PC-3 [4] = experiment: Reduction in PC3 cell viability after 48 hrs by FDA flow cytometer assay; type: functional, cell-based; conditions: Homo sapiens
PC-3 [5] = experiment: Induction of apoptosis in PC3 measured as percentage of necrotic cells by biparametric PI/Annexin V assay at 2.6 uM after 8 hrs; type: functional, Homo sapiens
PC-3 [6] = experiment: Induction of apoptosis in PC3 measured as percentage of necrotic cells by biparametric PI/Annexin V assay at 2.6 uM after 48 hrs; type: functional, Homo sapiens
PC-3 [7] = experiment: Induction of apoptosis in PC3 measured as percentage of late apoptotic cells by biparametric PI/Annexin V assay at 2.6 uM after 48 hrs; type: functional, Homo sapiens
PC-3 [8] = experiment: Induction of apoptosis in PC3 measured as percentage of late apoptotic cells by biparametric PI/Annexin V assay at 2.6 uM after 4 hrs; type: functional, Homo sapiens
PC-3 [9] = experiment: Induction of apoptosis in PC3 measured as percentage of early apoptotic cells by biparametric PI/Annexin V assay at 2.6 uM after 48 hrs; type: functional, Homo sapiens
PC-3 [10] = experiment: Induction of apoptosis in PC3 cells measured as percentage of living cells by biparametric PI/Annexin V assay at 2.6 uM after 4 hrs; type: functional, Homo sapiens
PC-3 [11] = experiment: Induction of apoptosis in PC3 cells measured as percentage of living cells by biparametric PI/Annexin V assay at 2.6 uM after 48 hrs; type: functional, Homo sapiens
PC-3 [12] = experiment: Induction of apoptosis in PC3 cells measured as percentage of living cells by biparametric PI/Annexin V assay at 2.6 uM after 8 hrs; type: functional, Homo sapiens
PC-3 [13] = experiment: Induction of apoptosis in PC3 measured as percentage of early apoptotic cells by biparametric PI/Annexin V assay at 2.6 uM after 4 hrs; type: functional, Homo sapiens
PC-3 [14] = experiment: Induction of early apoptosis in PC3 cells by DNA fragmentation assay; type: functional, cell-based; conditions: Homo sapiens
PC-3 [15] = experiment: Induction of apoptosis in PC3 measured as percentage of necrotic cells by biparametric PI/Annexin V assay at 2.6 uM after 24 hrs; type: functional, Homo sapiens
PC-3 [16] = experiment: Induction of apoptosis in PC3 measured as percentage of late apoptotic cells by biparametric PI/Annexin V assay at 2.6 uM after 24 hrs; type: functional, Homo sapiens
PC-3 [17] = experiment: Induction of apoptosis in PC3 measured as percentage of late apoptotic cells by biparametric PI/Annexin V assay at 2.6 uM after 8 hrs; type: functional, Homo sapiens
PC-3 [18] = experiment: Induction of apoptosis in PC3 measured as percentage of early apoptotic cells by biparametric PI/Annexin V assay at 2.6 uM after 8 hrs; type: functional, Homo sapiens
PC-3 [19] = experiment: Induction of apoptosis in PC3 cells measured as percentage of living cells by biparametric PI/Annexin V assay at 2.6 uM after 24 hrs; type: functional, Homo sapiens
PC-3 [20] = experiment: Induction of apoptosis in PC3 measured as percentage of necrotic cells by biparametric PI/Annexin V assay at 2.6 uM after 4 hrs; type: functional, Homo sapiens
PC-3 [21] = experiment: Induction of apoptosis in PC3 measured as percentage of early apoptotic cells by biparametric PI/Annexin V assay at 1.6 uM after 4 hrs; type: functional, Homo sapiens
PC-3 [22] = experiment: Induction of apoptosis in PC3 measured as percentage of late apoptotic cells by biparametric PI/Annexin V assay at 1.6 uM after 24 hrs; type: functional, Homo sapiens
PC-3 [23] = experiment: Induction of apoptosis in PC3 measured as percentage of late apoptotic cells by biparametric PI/Annexin V assay at 1.6 uM after 4 hrs; type: functional, Homo sapiens
PC-3 [24] = experiment: Induction of apoptosis in PC3 measured as percentage of early apoptotic cells by biparametric PI/Annexin V assay at 1.6 uM after 24 hrs; type: functional, Homo sapiens
PC-3 [25] = experiment: Induction of apoptosis in PC3 measured as percentage of late apoptotic cells by biparametric PI/Annexin V assay at 1.6 uM after 48 hrs; type: functional, Homo sapiens
PC-3 [26] = experiment: Induction of apoptosis in PC3 cells measured as percentage of living cells by biparametric PI/Annexin V assay at 1.6 uM after 48 hrs; type: functional, Homo sapiens
PC-3 [27] = experiment: Induction of apoptosis in PC3 measured as percentage of necrotic cells by biparametric PI/Annexin V assay at 1.6 uM after 8 hrs; type: functional, Homo sapiens
PC-3 [28] = experiment: Induction of apoptosis in PC3 measured as percentage of necrotic cells by biparametric PI/Annexin V assay at 1.6 uM after 24 hrs; type: functional, Homo sapiens
PC-3 [29] = experiment: Induction of apoptosis in PC3 cells measured as percentage of living cells by biparametric PI/Annexin V assay at 1.6 uM after 8 hrs; type: functional, Homo sapiens
PC-3 [30] = experiment: Induction of necrosis in PC3 cells by DNA fragmentation assay; type: functional, cell-based; conditions: Homo sapiens
PC-3 [31] = experiment: Induction of apoptosis in PC3 cells measured as percentage of living cells by biparametric PI/Annexin V assay at 1.6 uM after 4 hrs; type: functional, Homo sapiens
PC-3 [32] = experiment: Induction of apoptosis in PC3 cells measured as percentage of living cells by biparametric PI/Annexin V assay at 1.6 uM after 24 hrs; type: functional, Homo sapiens
PC-3 [33] = experiment: Induction of apoptosis in PC3 measured as percentage of late apoptotic cells by biparametric PI/Annexin V assay at 1.6 uM after 8 hrs; type: functional, Homo sapiens
PC-3 [34] = experiment: Induction of apoptosis in PC3 measured as percentage of necrotic cells by biparametric PI/Annexin V assay at 1.6 uM after 48 hrs; type: functional, Homo sapiens
PC-3 [35] = experiment: Induction of apoptosis in PC3 measured as percentage of necrotic cells by biparametric PI/Annexin V assay at 1.6 uM after 4 hrs; type: functional, Homo sapiens
PC-3 [36] = experiment: Induction of apoptosis in PC3 measured as percentage of early apoptotic cells by biparametric PI/Annexin V assay at 1.6 uM after 48 hrs; type: functional, Homo sapiens
PC-3 [37] = experiment: Induction of apoptosis in PC3 measured as percentage of early apoptotic cells by biparametric PI/Annexin V assay at 1.6 uM after 8 hrs; type: functional, Homo sapiens

Structure (SMILES) | Selectivity ratio [1] | GI50 (PC-3 [2]) [nM] | LC50 (concentration for 50% net cell kill) (PC-3 [2]) [nM] | TGI (PC-3 [2]) [nM] | also measured
CN(C)CCCNC(=O)c1ccc(NCCCN(C)CCCNc2ccc3c(=O)n(CCCN(C)C)c(=O)n4c5ccccc5c(=O)c2c34)c2c(O)c3ccccc3nc12 | 14 | 250 | 2500 | 600 | 
CN(C)CCn1c(=O)c2ccc(NCCCN(C)CCCN3C(=O)c4cccc5cccc(c45)C3=O)c3c(=O)c4ccccc4n(c1=O)c23 | 2.4 |  | 2600 |  | 
COc1cc2nc3c(C(=O)NCCN(C)C)ccc(NCCCN(C)CCCN4C(=O)c5cccc6cccc(c56)C4=O)c3c(O)c2cc1OC | 1.3 | 150 | > 50000 | 3800 | 
CN(C)CCNC(=O)c1ccc(NCCCN(C)CCCN2C(=O)c3cccc4cccc(c34)C2=O)c2c(O)c3cc([N+](=O)[O-])ccc3nc12 | 1.4 | 89 | 3000 | 630 | 
CN(C)CCNC(=O)c1ccc(NCCCN(C)CCCN2C(=O)c3cccc4cc([N+](=O)[O-])cc(c34)C2=O)c2c(O)c3ccccc3nc12 | 7.1 | 600 | 4400 | 1000 | 
CN(C)CCn1c(=O)c2ccc(NCCCN(C)CCCN3C(=O)c4cccc5cc([N+](=O)[O-])cc(c45)C3=O)c3c(=O)c4ccccc4n(c1=O)c23.Cl | 4.3 |  | 2600 |  | Activity (PC-3 [3]): 33.6%; Activity (PC-3 [4]): Time-dependent effect; Activity (PC-3 [5]): 26.9%; Activity (PC-3 [6]): 87.3%; Activity (PC-3 [7]): 7.5%; Activity (PC-3 [8]): 3.5%; Activity (PC-3 [9]): 4%; Activity (PC-3 [10]): 67.7%; Activity (PC-3 [11]): 1.2%; Activity (PC-3 [12]): 49%; Activity (PC-3 [13]): 12.5%; Activity (PC-3 [14]): Active; Activity (PC-3 [15]): 28.6%; Activity (PC-3 [16]): 6.3%; Activity (PC-3 [17]): 7.8%; Activity (PC-3 [18]): 16.3%; Activity (PC-3 [19]): 31.5%; Activity (PC-3 [20]): 16.3%
COc1ccc2c(c1)c(=O)c1c(NCCCN(C)CCCN3C(=O)c4cccc5cc([N+](=O)[O-])cc(c45)C3=O)ccc3c(=O)n(CCN(C)C)c(=O)n2c31 | 4.8 | 83 | 9300 | 500 | 
CN(C)CCNC(=O)c1ccc(NCCCN(C)CCCNc2ccc3c(=O)n(CCN(C)C)c(=O)n4c5ccccc5c(=O)c2c34)c2c(O)c3cc([N+](=O)[O-])ccc3nc12.Cl | 1.9 | 7 | 1600 | 160 | Activity (PC-3 [21]): 1.9%; Activity (PC-3 [22]): 15.6%; Activity (PC-3 [23]): 3%; Activity (PC-3 [24]): 2.9%; Activity (PC-3 [25]): 35.2%; Activity (PC-3 [4]): Time-dependent effect; Activity (PC-3 [26]): 5%; Activity (PC-3 [27]): 37.9%; Activity (PC-3 [28]): 44%; Activity (PC-3 [29]): 53%; Activity (PC-3 [30]): Active; Activity (PC-3 [31]): 66.5%; Activity (PC-3 [32]): 37.5%; Activity (PC-3 [33]): 5.5%; Activity (PC-3 [34]): 55.7%; Activity (PC-3 [35]): 28.6%; Activity (PC-3 [36]): 4.1%; Activity (PC-3 [37]): 3.6%
CN(C)CCNC(=O)c1ccc(NCCCN(C)CCCN2C(=O)c3cccc4cccc(c34)C2=O)c2c(O)c3ccccc3nc12 | 4.1 | 520 | 5400 | 2000 | 
CN(C)CCNC(=O)c1ccc(NCCCN(C)CCCNc2ccc3c(=O)n(CCN(C)C)c(=O)n4c5ccccc5c(=O)c2c34)c2c(O)c3ccccc3nc12 | 1.3 | 100 | 8300 | 1000 | 
CN(C)CCN1C(=O)c2cccc3cc([N+](=O)[O-])cc(c23)C1=O [MITONAFIDE] |  | 150 |  | 3800 | 
CN(C)CCCNC(=O)c1ccc(NCCCN(C)CCCN2C(=O)c3cccc4cc([N+](=O)[O-])cc(c34)C2=O)c2c(O)c3ccccc3nc12 | 6.1 | 50 | 3600 | 90 | 
COc1ccc2c(c1)c(=O)c1c(NCCCN(C)CCCN3C(=O)c4cccc5cccc(c45)C3=O)ccc3c(=O)n(CCN(C)C)c(=O)n2c31 | 4.5 | 51 | 4000 | 850 | 
CN(C)CCNC(=O)c1ccc(NCCNCCNCCN2C(=O)c3cccc4cccc(c34)C2=O)c2c(O)c3cc([N+](=O)[O-])ccc3nc12 |  | 62 | 2500 | 390 | 
CN(C)CCCn1c(=O)c2ccc(NCCCN(C)CCCN3C(=O)c4cccc5cccc(c45)C3=O)c3c(=O)c4ccccc4n(c1=O)c23 | 3.4 | 420 | 3800 | 830 | 
CN(C)CCCNC(=O)c1ccc(NCCCN(C)CCCN2C(=O)c3cccc4cccc(c34)C2=O)c2c(O)c3ccccc3nc12 | 6.9 | 600 | 4100 | 990 | 
COc1cc2c(=O)c3c(NCCCN(C)CCCN4C(=O)c5cccc6cc([N+](=O)[O-])cc(c56)C4=O)ccc4c(=O)n(CCN(C)C)c(=O)n(c2cc1OC)c43 | 1.6 | 17 | 4000 | 340 | 
CN(C)CCNC(=O)c1ccc(NCCCN(C)CCCN2C(=O)c3cccc4cc([N+](=O)[O-])cc(c34)C2=O)c2c(O)c3cc([N+](=O)[O-])ccc3nc12 | 2.1 | 8 | 4100 | 1300 | 
CN(C)CCCn1c(=O)c2ccc(NCCCN(C)CCCN3C(=O)c4cccc5cc([N+](=O)[O-])cc(c45)C3=O)c3c(=O)c4ccccc4n(c1=O)c23 | 20 | 1700 | 6600 | 3200 | 
